Values of other authors, collected in patent US11850218B2, “Nutraceutical compositions and methods for dietary alleviation of Polycystic Ovary Syndrome” (Provation Life LLC, priority 2022, dated 2023).

Assays:
[1] = system: cellular sensitivity to insulin

Row | Compound | cellular sensitivity to insulin / insulin resistance [1] | anti-androgenic effect (hyperandrogenism) | also measured
1 | COc1ccc2cc3[n+](cc2c1OC)CCc1cc2c(cc1-3)OCO2 [Berberine] | decrease insulin resistance | – | –
2 | COc1cc(/C=C/C(=O)CC(=O)/C=C/c2ccc(O)c(OC)c2)ccc1O [Curcumin] | increases cellular sensitivity to insulin | – | –
3 | [Mg+2] [Magnesium] | – | show anti-androgenic effects | production of lutenizing hormone (hyperandrogenism; supplementation): seems to have a positive effect
4 | CC[C@H](C)C(=O)O[C@H]1C[C@@H](C)C=C2C=C[C@H](C)[C@H](CC[C@@H]3C[C@@H](O)CC(=O)O3)[C@H]21 [Monacolin K] | – | provides an anti-androgenic effect | –
5 | [Zn] [Zinc] | – | show anti-androgenic effects | production of progesterone (hyperandrogenism; supplementation): increase production
6 | O[C@H]1[C@H](O)[C@@H](O)[C@H](O)[C@@H](O)[C@H]1O [myo-inositol] | increase cellular sensitivity to insulin | significant anti-androgenic effect | menstruation / menstrual cyclicity (PCOS cases): restoration of normal menstruation
7 | chromium (III) picolinate | positive effect upon cellular sensitivity to insulin | produces an anti-androgenic effect | free testosterone levels (hyperandrogenism; PCOS cases): lowering free testosterone levels
